Test systems include OVCAR-3 ovarian; OVCAR-5 ovarian; HL-60(TB) leukemia; SF-295 CNS; U251 CNS; HCT-15 colon; ACHN renal; HCT-116 colon; SF-268 CNS; HT29 colon.
What all share (assay): NCI tumour cell line growth inhibition, 48 h

Several values for one entry are separate records, joined by “and”; a condition that tells them apart may be missing. Identical values can stand only once.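 96-well plates; 48 h exposure; 5 concentrations. Endpoints by linear interpolation between flanking doses. Not reached: highest tested concentration assigned. GI50: concentration for 50% inhibition of growth. TGI: total growth inhibition.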

Take `NC(CS)C(=O)NCCNc1ccc(NCCNC(=O)C(N)CS)c2c1C(=O)c1c(O)ccc(O)c1C2=O` (centres undefined): the TGI was 1.76 µM and 1.58 µM with OVCAR-3 ovarian; 1.58 µM and 0.718 µM with OVCAR-5 ovarian; 0.0414 µM in the test with HL-60(TB) leukemia; 0.276 µM and 0.0386 µM with SF-295 CNS; 0.136 µM and 0.117 µM in the test with U251 CNS; 0.864 µM and 0.584 µM in the test on HCT-15 colon. For the same compound, the TGI with ACHN renal is 0.123 µM and 0.104 µM; with HCT-116 colon, 0.261 µM and 0.154 µM; in the test on SF-268 CNS, 0.953 µM; in the test with HT29 colon it was 1.08 µM and 0.689 µM. Further, the GI50 in the test on OVCAR-5 ovarian was 0.0756 µM; in the test on HCT-15 colon, 0.0384 µM; in the test with HCT-116 colon, 0.0176 µM; in the test on HT29 colon, 0.0454 µM.

On to `COc1ccc2nc3c([N+](=O)[O-])ccc(NCCCN(C)C)c3c(N)c2c1`, for which the TGI in the test on OVCAR-3 ovarian was 3 µM; with OVCAR-5 ovarian, 2.75 µM; in the test with HL-60(TB) leukemia it was 5.86 µM; in the test with SF-295 CNS, 2.95 µM; with U251 CNS, 3.02 µM; with HCT-15 colon, 2.62 µM. Besides, the TGI in the test with ACHN renal was found to be 2.59 µM; with HCT-116 colon, 0.464 µM; with SF-268 CNS it was 3.31 µM; with HT29 colon, 2.31 µM.

As for `O=P(Nc1cccc(Cl)c1)(Oc1ccccc1)N(CCCl)CCCl` (centres undefined), the TGI is 35.7 µM in the test with OVCAR-3 ovarian; 28.8 µM in the test with OVCAR-5 ovarian; greater than 100 µM with HL-60(TB) leukemia; 28.1 µM in the test on SF-295 CNS; 28.3 µM with U251 CNS; 28.7 µM in the test on HCT-15 colon. In addition, the TGI was 47.3 µM with ACHN renal, 25.8 µM in the test with HCT-116 colon, 31.4 µM in the test with SF-268 CNS and 28.4 µM in the test with HT29 colon.

Regarding `CCOC(=O)CCC(C(=O)OCC)n1nnc2ccc(Nc3c(C)[n+]([O-])c4cc(F)c(OCC)cc4[n+]3[O-])cc21` (centres undefined), the TGI with OVCAR-3 ovarian is 67.4 µM; with OVCAR-5 ovarian, greater than 100 µM; in the test on HL-60(TB) leukemia it was greater than 100 µM; in the test on SF-295 CNS it was greater than 100 µM; with U251 CNS, greater than 100 µM; in the test on HCT-15 colon, greater than 100 µM. The TGI with ACHN renal, with HCT-116 colon, with SF-268 CNS and in the test with HT29 colon was greater than 100 µM throughout.

Regarding `CON(C(=O)OC(C)(C)C)c1ccccc1`, the TGI in the test with OVCAR-3 ovarian, in the test with OVCAR-5 ovarian, in the test with HL-60(TB) leukemia, in the test with SF-295 CNS, in the test on U251 CNS and with HCT-15 colon was greater than 100 µM in each case. The TGI with ACHN renal, with HCT-116 colon, with SF-268 CNS and in the test with HT29 colon was greater than 100 µM in each case.

Turning to `COc1ccc(/C=C(\C2=NC(=O)CS2)c2nc3ccccc3[nH]2)cc1`, the TGI in the test with OVCAR-3 ovarian is 52.3 µM; in the test with OVCAR-5 ovarian it was greater than 100 µM; in the test on HL-60(TB) leukemia, greater than 100 µM; in the test on SF-295 CNS, greater than 100 µM; with U251 CNS, greater than 100 µM; in the test with HCT-15 colon, greater than 100 µM. Besides, the TGI with ACHN renal, in the test with HCT-116 colon, with SF-268 CNS and in the test with HT29 colon was greater than 100 µM each time.

Consider `Cc1cc2nc(CC(C(F)(F)F)C(F)(F)F)oc2cc1C`, for which the TGI in the test on OVCAR-3 ovarian amounted to 14.2 µM; with OVCAR-5 ovarian, 25.7 µM; with HL-60(TB) leukemia, 12.5 µM; in the test with SF-295 CNS it was 18.6 µM; in the test with U251 CNS, 9.41 µM; in the test with HCT-15 colon it was 26.8 µM. The TGI in the test on ACHN renal amounted to 20.7 µM; in the test on HCT-116 colon, 2.64 µM; in the test with SF-268 CNS it was 8.2 µM; with HT29 colon, 7.91 µM.

For `COc1cc2nc3n(c(=O)c2cc1OC)CCCCC3`, the TGI in the test with OVCAR-3 ovarian, in the test with OVCAR-5 ovarian, in the test with HL-60(TB) leukemia, in the test on SF-295 CNS, with U251 CNS and with HCT-15 colon was greater than 100 µM each time. Further, the TGI in the test on ACHN renal, with HCT-116 colon, with SF-268 CNS and in the test with HT29 colon was greater than 100 µM throughout.

On to `O=[N+]([O-])c1ccc2c(N=Nc3ccc4ccccc4c3O)c(O)cc(S(=O)(=O)O)c2c1`, for which the TGI in the test on OVCAR-3 ovarian was 99.5 µM; in the test on OVCAR-5 ovarian, greater than 100 µM; in the test on HL-60(TB) leukemia, 23.1 µM; in the test on SF-295 CNS, greater than 85.7 µM; with U251 CNS it was greater than 100 µM; in the test on HCT-15 colon, greater than 100 µM. The TGI in the test on ACHN renal is 50.3 µM; in the test with HCT-116 colon it was greater than 100 µM; in the test on SF-268 CNS it was 63.9 µM; in the test on HT29 colon it was greater than 100 µM.

Consider `O=C(c1cccnc1)N1N=C(c2ccc3c(c2)OCO3)CC1(O)c1cc(F)c(Cl)cc1Cl` (centres undefined), for which the TGI with OVCAR-3 ovarian is 26.3 µM; in the test with OVCAR-5 ovarian, 49.4 µM; with HL-60(TB) leukemia it was 52.2 µM; in the test with SF-295 CNS it was 59.4 µM; in the test on U251 CNS, 32.9 µM; in the test on HCT-15 colon, 42.5 µM. Moreover, the TGI in the test on ACHN renal was 38.9 µM; in the test with HCT-116 colon, 31.2 µM; in the test on SF-268 CNS, 49.8 µM; in the test with HT29 colon, 35.9 µM.

For the compound `O=C1C=CC(=O)[C@H]2C3C=CC(C4C3C3(Cl)C(Cl)=C(Cl)[C@]4(Cl)C3(Cl)Cl)[C@@H]12` (some centres undefined), the TGI in the test with OVCAR-3 ovarian was 8.98 µM; in the test on OVCAR-5 ovarian it was 19.7 µM; in the test on HL-60(TB) leukemia, 4.63 µM; in the test with SF-295 CNS it was 25.2 µM; in the test on U251 CNS, 13.3 µM; with HCT-15 colon, 16.6 µM. Besides, the TGI with ACHN renal was 20.9 µM; in the test with HCT-116 colon, 12.9 µM; with SF-268 CNS, 18.4 µM; in the test on HT29 colon, 12.2 µM.

On to `COc1ccc(N2C(=O)C3C=CC(n4[nH]c(=O)n(Cc5ccccc5)c4=O)CC3C2=O)cc1` (centres undefined), for which the TGI with OVCAR-3 ovarian, in the test with OVCAR-5 ovarian, in the test on HL-60(TB) leukemia, in the test on SF-295 CNS, with U251 CNS and with HCT-15 colon was greater than 100 µM in each case. Also, the TGI in the test on ACHN renal, in the test on HCT-116 colon, in the test on SF-268 CNS and with HT29 colon was greater than 100 µM throughout.

In the case of `NCCN(CCN)/[N+]([O-])=N/O`, the TGI with OVCAR-3 ovarian, with OVCAR-5 ovarian, in the test on HL-60(TB) leukemia, in the test on SF-295 CNS, in the test with U251 CNS and in the test with HCT-15 colon was greater than 100 µM in each case. Moreover, the TGI with ACHN renal, with HCT-116 colon, in the test on SF-268 CNS and in the test on HT29 colon was greater than 100 µM in each case.

Regarding `O=C(NCCCc1cn[nH]c(=O)n1)c1cccc2nc3ccccc3nc12`, the TGI in the test with OVCAR-3 ovarian, with OVCAR-5 ovarian, in the test on HL-60(TB) leukemia, in the test with SF-295 CNS, in the test with U251 CNS and in the test with HCT-15 colon was greater than 100 µM each time. Moreover, the TGI in the test with ACHN renal, in the test with HCT-116 colon, in the test on SF-268 CNS and with HT29 colon was greater than 100 µM throughout.

`O=C1CCc2ccccc2O1`: the TGI in the test with OVCAR-3 ovarian, in the test with OVCAR-5 ovarian, with HL-60(TB) leukemia, in the test on SF-295 CNS, in the test with U251 CNS and with HCT-15 colon was greater than 100 µM throughout. For the same compound, the TGI in the test with ACHN renal, with HCT-116 colon, in the test on SF-268 CNS and in the test on HT29 colon was greater than 100 µM throughout.

As to `Cc1ccc(O)cc1` (tested in a mixture with another compound), the TGI in the test on OVCAR-3 ovarian, in the test with OVCAR-5 ovarian, in the test with HL-60(TB) leukemia, with SF-295 CNS, in the test on U251 CNS and in the test on HCT-15 colon was greater than 100 µM throughout. In addition, the TGI in the test with ACHN renal, in the test on HCT-116 colon, with SF-268 CNS and with HT29 colon was greater than 100 µM throughout.

Take `O=C1[C@H](O)[C@@H]2CCC[C@@]23CCCN13`: the TGI in the test on OVCAR-3 ovarian, with OVCAR-5 ovarian, in the test on HL-60(TB) leukemia, in the test on SF-295 CNS, in the test with U251 CNS and in the test with HCT-15 colon was greater than 100 µM throughout. Also, the TGI with ACHN renal, in the test on HCT-116 colon, with SF-268 CNS and with HT29 colon was greater than 100 µM in each case.
